pIC50: −log10 of the molar value.
Tests used:
[1] = molecular target: T1, human TLR7 (Homo sapiens, UniProt Q9NYK1); assay: TLR7 inhibition reporter assay (HEK-Blue cells, SEAP reporter, gardiquimod stimulation); type: cell-based; conditions: HEK-Blue cells overexpressing human TLR7, gardiquimod 7.5 μM
T1 construct: host or cells: HEK-Blue cells
T1 sequence (Q9NYK1 27-1049): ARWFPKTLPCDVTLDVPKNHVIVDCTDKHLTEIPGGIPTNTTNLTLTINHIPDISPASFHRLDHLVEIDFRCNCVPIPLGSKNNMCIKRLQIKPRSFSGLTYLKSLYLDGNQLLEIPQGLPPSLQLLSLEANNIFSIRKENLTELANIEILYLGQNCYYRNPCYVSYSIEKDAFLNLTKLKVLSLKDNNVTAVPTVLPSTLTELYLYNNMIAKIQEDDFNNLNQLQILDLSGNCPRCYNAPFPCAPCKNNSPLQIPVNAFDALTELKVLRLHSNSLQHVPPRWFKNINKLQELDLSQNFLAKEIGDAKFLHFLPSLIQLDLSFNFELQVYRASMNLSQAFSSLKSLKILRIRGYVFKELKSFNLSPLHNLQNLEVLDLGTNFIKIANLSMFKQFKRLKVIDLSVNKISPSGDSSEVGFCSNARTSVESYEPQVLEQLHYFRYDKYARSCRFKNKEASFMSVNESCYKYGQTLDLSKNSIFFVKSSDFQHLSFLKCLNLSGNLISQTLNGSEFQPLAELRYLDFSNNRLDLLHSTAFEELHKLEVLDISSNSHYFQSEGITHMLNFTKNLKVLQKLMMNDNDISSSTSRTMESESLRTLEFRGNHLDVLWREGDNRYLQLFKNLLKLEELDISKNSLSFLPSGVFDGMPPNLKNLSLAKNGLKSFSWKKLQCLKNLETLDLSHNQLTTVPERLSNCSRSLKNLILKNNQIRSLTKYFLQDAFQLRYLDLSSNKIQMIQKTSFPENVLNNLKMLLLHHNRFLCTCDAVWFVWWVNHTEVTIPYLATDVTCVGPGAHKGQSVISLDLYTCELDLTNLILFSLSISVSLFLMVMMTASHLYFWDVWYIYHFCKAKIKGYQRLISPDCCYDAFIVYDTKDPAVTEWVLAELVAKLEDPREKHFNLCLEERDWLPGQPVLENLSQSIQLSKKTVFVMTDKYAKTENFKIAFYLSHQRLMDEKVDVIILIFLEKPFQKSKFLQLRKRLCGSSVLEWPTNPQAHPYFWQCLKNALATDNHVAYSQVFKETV
Procedure, shortened: (§1)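 Dose-response testing from 0.05 nM to 50 μM final was done on reporter cells for 22 hours at 37° C. Secreted SEAP was then detected, and inhibition was calculated as percent reduction of the agonist-plus-DMSO signal compared with wells given a known inhibitor.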

[2] = molecular target: T2, human TLR8 (Homo sapiens, UniProt Q9NR97); assay: TLR8 inhibition reporter assay (HEK-Blue cells, SEAP reporter, R848 stimulation); type: cell-based; conditions: HEK-Blue cells overexpressing human TLR8, R848 15.9 μM
T2 construct: host or cells: HEK-Blue cells
T2 sequence (Q9NR97 27-1041): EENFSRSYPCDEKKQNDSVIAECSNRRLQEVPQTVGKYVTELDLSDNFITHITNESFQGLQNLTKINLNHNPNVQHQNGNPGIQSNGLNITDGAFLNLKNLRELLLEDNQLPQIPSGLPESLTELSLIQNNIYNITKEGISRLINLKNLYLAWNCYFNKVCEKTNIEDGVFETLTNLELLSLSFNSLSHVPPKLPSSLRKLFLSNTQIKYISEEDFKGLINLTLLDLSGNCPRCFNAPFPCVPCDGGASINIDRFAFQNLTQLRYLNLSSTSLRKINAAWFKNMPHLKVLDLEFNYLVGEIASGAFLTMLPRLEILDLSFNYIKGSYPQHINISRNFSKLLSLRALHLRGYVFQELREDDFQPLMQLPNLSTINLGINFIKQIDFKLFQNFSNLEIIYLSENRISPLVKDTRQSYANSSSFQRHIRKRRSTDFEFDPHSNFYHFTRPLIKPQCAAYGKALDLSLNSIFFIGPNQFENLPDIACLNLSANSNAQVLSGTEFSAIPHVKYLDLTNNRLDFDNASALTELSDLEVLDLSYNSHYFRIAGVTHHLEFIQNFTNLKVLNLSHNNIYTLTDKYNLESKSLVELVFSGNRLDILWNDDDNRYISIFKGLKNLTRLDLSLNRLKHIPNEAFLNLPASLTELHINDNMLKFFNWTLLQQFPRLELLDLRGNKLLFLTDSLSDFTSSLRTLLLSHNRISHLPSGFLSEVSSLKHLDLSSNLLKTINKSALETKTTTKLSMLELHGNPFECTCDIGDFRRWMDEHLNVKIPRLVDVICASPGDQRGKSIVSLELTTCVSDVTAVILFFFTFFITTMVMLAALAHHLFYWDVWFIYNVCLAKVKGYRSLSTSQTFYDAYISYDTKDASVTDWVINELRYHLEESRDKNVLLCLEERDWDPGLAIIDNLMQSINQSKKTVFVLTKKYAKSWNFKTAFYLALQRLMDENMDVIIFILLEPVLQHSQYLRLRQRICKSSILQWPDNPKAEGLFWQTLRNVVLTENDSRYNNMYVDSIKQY
Procedure, shortened: as §1

pIC50 [1]	pIC50 [2]	Structure (SMILES)
7.36	7.27	COc1ccc(-c2[nH]c3ccc(C4CCN(C(=O)CNC56CC7CC(CC(O)(C7)C5)C6)CC4)cc3c2C(C)C)cc1OC [Example 218, 1-(4-(2-(3,4-dimethoxyphenyl)-3-isopropyl-1H-indol-5-yl)piperidin-1-yl)-2-(((1r,3s,5R,7S)-3-hydroxyadamantan-1-yl)amino)ethan-1-one]
7.48	7.41	COc1ccc(-c2[nH]c3ccc(C4CCN(C(=O)CNCC(C)(C)CO)CC4)cc3c2C(C)C)cc1OC [Example 219, 1-(4-(2-(3,4-dimethoxyphenyl)-3-isopropyl-1H-indol-5-yl)piperidin-1-yl)-2-((3-hydroxy-2,2-dimethylpropyl)amino)ethan-1-one]
7.60	7.68	COc1ccc(-c2[nH]c3ccc(C4CCN(C(=O)CNC(CO)CO)CC4)cc3c2C(C)C)cc1OC [Example 220, 2-((1,3-dihydroxypropan-2-yl)amino)-1-(4-(2-(3,4-dimethoxyphenyl)-3-isopropyl-1H-indol-5-yl)piperidin-1-yl)ethan-1-one]

Reference: patent US11180474B2 (BRISTOL-MYERS SQUIBB COMPANY, priority 2016, dated 2021)
